The text below walks through data of US10829458B2 (Araxes Pharma LLC, priority 2015, dated 2020).

Structures are written as SMILES.

For the first test, the target named is T1, KRAS G12C 1-169, his-tagged protein, GDP-loaded (Homo sapiens, UniProt P01116, G12C).
T1 construct: KRAS G12C 1-169, his-tagged protein, GDP-loaded
Briefly: Biochemical assay: covalent modification of KRAS G12C measured by mass spectrometry (RapidFire/TOF or Q-Exactive). As to conditions: covalent binding to KRAS G12C; compounds of structure (II). Put shortly: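 GDP-loaded his-tagged KRAS G12C 1-169 at 2 μM in 20 mM Hepes, 150 mM NaCl, 1 mM MgCl2 incubated at room temperature with compound (10, 30 or 100 μM final, 2% DMSO) for 30 min, 2 h or 24 h, then quenched with formic acid. Intact-protein LC-MS (RapidFire/TOF or Q-Exactive) with deconvolution quantified modified versus unmodified protein.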
As for `C=CC(=O)Nc1cccc(-c2ncnc3c(F)c(-c4c(O)cccc4F)c(Cl)cc23)c1` [II-11, N-(3-(6-chloro-8-fluoro-7-(2-fluoro-6-hydroxyphenyl)quinazolin-4-yl)phenyl)acrylamide], the Binding % result is given as “+ (+ indicates binding activity up to 50%)”.
Same read-out and setting: under `C=CC(=O)Nc1cc(-c2ncnc3c(F)c(-c4c(O)cccc4F)c(Cl)cc23)ccn1` [II-12, N-(4-(6-chloro-8-fluoro-7-(2-fluoro-6-hydroxyphenyl)quinazolin-4-yl)pyridin-2-yl)acrylamide] stands “+ (+ indicates binding activity up to 50%)”; under `C=CC(=O)Nc1ncc(-c2ncnc3c(F)c(-c4c(O)cccc4F)c(Cl)cc23)s1` [II-13, N-(5-(6-chloro-8-fluoro-7-(2-fluoro-6-hydroxyphenyl)quinazolin-4-yl)thiazol-2-yl)acrylamide], “++ (++ indicates binding activity greater than 50% and less than 75%)”.

Still in this test, the particulars now being: covalent binding to KRAS G12C; compounds of structure (III).
For the compound `C=CC(=O)N1C[C@H](C)N(c2ncnc3c(F)c(-c4c(O)cccc4F)c(Cl)cc23)C[C@H]1C` [III-1, 1-((2R,5S)-4-(6-chloro-8-fluoro-7-(2-fluoro-6-hydroxy-phenyl)quinazolin-4-yl)-2,5-dimethyl-piperazin-1-yl)prop-2-en-1-one], the Binding % result was “++ (++ indicates activity from 50% to 90%)”.
On the same count and under the same terms, under `C=CC(=O)N1C[C@H](C)N(c2ncnc3c(F)c(-c4c(F)cccc4OC)c(Cl)cc23)C[C@H]1C` [III-2, 1-((2R,5S)-4-(6-chloro-8-fluoro-7-(2-fluoro-6-methoxy-phenyl)quinazolin-4-yl)-2,5-dimethyl-piperazin-1-yl)prop-2-en-1-one] stands “+ (+ indicates binding activity up to 50%)”.
As for `C=CC(=O)N1CCN(c2ncnc3c(F)c(-c4c(C)ccc5cn[nH]c45)c(Cl)cc23)[C@@H](C)C1` [III-3, 1-((3S)-4-(6-chloro-8-fluoro-7-(6-methyl-1H-indazol-7-yl)quinazolin-4-yl)-3-methyl-piperazin-1-yl)prop-2-en-1-one], the Binding % entry was “++ (++ indicates activity from 50% to 90%)”.
As to `C=CC(=O)N1CCN(c2ncnc3c(F)c(-c4c(O)cccc4F)c(Cl)cc23)CC1C` (stereo not drawn) [III-5, 1-(4-(6-chloro-8-fluoro-7-(2-fluoro-6-hydroxy-phenyl)quinazolin-4-yl)-2-methyl-piperazin-1-yl)prop-2-en-1-one], the Binding % entry is “++ (++ indicates activity from 50% to 90%)”.
Same read-out and setting: the same measure for `C=CC(=O)N1CCN(c2ncnc3c(F)c(-c4c(O)cccc4F)c(Cl)cc23)CC1(C)C` [III-7, 1-(4-(6-chloro-8-fluoro-7-(2-fluoro-6-hydroxy-phenyl)quinazolin-4-yl)-2,2-dimethyl-piperazin-1-yl)prop-2-en-1-one]: “+ (+ indicates binding activity up to 50%)”.
Consider `C=CC(=O)N1CCN(c2ncnc3c(F)c(-c4c(O)cccc4F)c(Cl)cc23)CC1CO` (stereo not drawn) [III-8, 1-(4-(6-chloro-8-fluoro-7-(2-fluoro-6-hydroxy-phenyl)quinazolin-4-yl)-2-(hydroxy-methyl)piperazin-1-yl)prop-2-en-1-one], for which the Binding % result is reported as “++ (++ indicates activity from 50% to 90%)”.
Same read-out and setting: the same measure for `C=CC(=O)N1C(C)CN(c2ncnc3c(F)c(-c4c(O)cccc4F)c(Cl)cc23)CC1C` (stereo not drawn) [III-9, 1-(4-(6-chloro-8-fluoro-7-(2-fluoro-6-hydroxy-phenyl)quinazolin-4-yl)-2,6-dimethyl-piperazin-1-yl)prop-2-en-1-one]: “++ (++ indicates activity from 50% to 90%)”.
On the same count and under the same terms, the same measure for `C=CC(=O)N1CCN(c2ncnc3c(F)c(-c4c(O)cccc4F)c(Cl)cc23)CC12CC2` [III-10, 1-(7-(6-chloro-8-fluoro-7-(2-fluoro-6-hydroxy-phenyl)quinazolin-4-yl)-4,7-diazaspiro [2.5]octan-4-yl)prop-2-en-1-one]: “+ (+ indicates binding activity up to 50%)”; for `C=CC(=O)N1CCN(c2ncnc3c(F)c(-c4c(O)cccc4F)c(Cl)cc23)CC1C(F)(F)F` (stereo not drawn) [III-11, 1-(4-(6-chloro-8-fluoro-7-(2-fluoro-6-hydroxy-phenyl)quinazolin-4-yl)-2-(trifluoro-methyl)piperazin-1-yl)prop-2-en-1-one]: “+++ (+++ indicates binding activity greater than 90%)”; for `C=CC(=O)N1CCN(c2ncnc3c(F)c(-c4c(O)cccc4F)c(Cl)cc23)[C@H](C)C1` [III-12, 1-((3R)-4-(6-chloro-8-fluoro-7-(2-fluoro-6-hydroxy-phenyl)quinazolin-4-yl)-3-methyl-piperazin-1-yl)prop-2-en-1-one]: “+ (+ indicates binding activity up to 50%)”.
Same read-out and setting: under `C=CC(=O)N1CCN(c2ncnc3c(F)c(-c4c(F)cccc4OC)c(Cl)cc23)[C@H](C)C1` [III-13, 1-((3R)-4-(6-chloro-8-fluoro-7-(2-fluoro-6-methoxy-phenyl)quinazolin-4-yl)-3-methyl-piperazin-1-yl)prop-2-en-1-one] stands “+ (+ indicates binding activity up to 50%)”.
With `C=CC(=O)N1CCN(c2ncnc3c(F)c(-c4c(O)cccc4F)c(Cl)cc23)C2CC21` (stereo not drawn) [III-16, 1-(5-(6-chloro-8-fluoro-7-(2-fluoro-6-hydroxy-phenyl)quinazolin-4-yl)-2,5-diazabicyclo [4.1.0.]heptan-2-yl)prop-2-en-1-one], the Binding % entry is recorded as “+ (+ indicates binding activity up to 50%)”.
On to `C=CC(=O)N1CCN(c2ncnc3c(F)c(-c4c(O)cccc4F)c(Cl)cc23)CC1C(F)F` (stereo not drawn) [III-19, 1-(4-(6-chloro-8-fluoro-7-(2-fluoro-6-hydroxy-phenyl)quinazolin-4-yl)-2-(difluoro-methyl)piperazin-1-yl)prop-2-en-1-one], for which the Binding % result is given as “+++ (+++ indicates binding activity greater than 90%)”.
Still for that read-out and setting: the same measure for `C=CC(=O)N1CCN(c2ncnc3c(F)c(-c4c(C)ccc5[nH]ncc45)c(Cl)cc23)[C@@H](C)C1` [III-25, 1-((3S)-4-(6-chloro-8-fluoro-7-(5-methyl-1H-indazol-4-yl)quinazolin-4-yl)-3-methyl-piperazin-1-yl)prop-2-en-1-one]: “+++ (+++ indicates binding activity greater than 90%)”; for `C=CC(=O)N1[C@H](C)CN(c2ncnc3c(F)c(-c4c(C)ccc5[nH]ncc45)c(Cl)cc23)C[C@@H]1C` [III-26, 1-((2S,6R)-4-(6-chloro-8-fluoro-7-(5-methyl-1H-indazol-4-yl)quinazolin-4-yl)-2,6-dimethyl-piperazin-1-yl)prop-2-en-1-one]: “++ (++ indicates activity from 50% to 90%)”; for `C=CC(=O)N1[C@H](C)CN(c2ncnc3c(F)c(-c4cc(O)cc5ccccc45)c(Cl)cc23)C[C@@H]1C` [III-27, 1-((2S,6R)-4-(6-chloro-8-fluoro-7-(3-hydroxy-naphthalen-1-yl)quinazolin-4-yl)-2,6-dimethyl-piperazin-1-yl)prop-2-en-1-one]: “+++ (+++ indicates binding activity greater than 90%)”.
On the same count and under the same terms, under `C=CC(=O)N1C[C@@H](C)N(c2ncnc3c(F)c(-c4c(O)cccc4F)c(Cl)cc23)[C@@H](C)C1` [III-28, 1-((3R,5S)-4-(6-chloro-8-fluoro-7-(2-fluoro-6-hydroxy-phenyl)quinazolin-4-yl)-3,5-dimethyl-piperazin-1-yl)prop-2-en-1-one] stands “+++ (+++ indicates binding activity greater than 90%)”.
Still for that read-out and setting: under `C=CC(=O)N1CCN(c2ncnc3c(F)c(-c4cc(O)cc5ccccc45)c(Cl)cc23)[C@@H](C)C1` [III-30, 1-((3S)-4-(6-chloro-8-fluoro-7-(3-hydroxy-naphthalen-1-yl)quinazolin-4-yl)-3-methyl-piperazin-1-yl)prop-2-en-1-one] stands “+++ (+++ indicates binding activity greater than 90%)”.
On to `C=CC(=O)N1CCN(c2ncnc3c(F)c(-c4c(O)cccc4F)c(Cl)cc23)C2(CC2)C1` [III-31, 1-(4-(6-chloro-8-fluoro-7-(2-fluoro-6-hydroxy-phenyl)quinazolin-4-yl)-4,7-diazaspiro [2.5]octan-7-yl)prop-2-en-1-one], for which the Binding % result is reported as “+ (+ indicates binding activity up to 50%)”.
Still for that read-out and setting: the same measure for `C=CC(=O)N1CCN(c2ncnc3c(F)c(-c4c(O)cccc4F)c(Cl)cc23)[C@@H](CC)C1` [III-32, 1-((3S)-4-(6-chloro-8-fluoro-7-(2-fluoro-6-hydroxy-phenyl)quinazolin-4-yl)-3-ethyl-piperazin-1-yl)prop-2-en-1-one]: “++ (++ indicates activity from 50% to 90%)”; for `C=CC(=O)N1C[C@@H](C)N(c2ncnc3c(F)c(-c4c(O)cccc4F)c(Cl)cc23)[C@H](C)C1` [III-33, 1-((3R,5R)-4-(6-chloro-8-fluoro-7-(2-fluoro-6-hydroxy-phenyl)quinazolin-4-yl)-3,5-dimethyl-piperazin-1-yl)prop-2-en-1-one]: “+ (+ indicates binding activity up to 50%)”; for `C=CC(=O)N1CCN(c2ncnc3c(F)c(-c4c(O)cccc4F)c(Cl)cc23)[C@@H](C(C)C)C1` [III-34, 1-((3S)-4-(6-chloro-8-fluoro-7-(2-fluoro-6-hydroxy-phenyl)quinazolin-4-yl)-3-isopropyl-piperazin-1-yl)prop-2-en-1-one]: “+ (+ indicates binding activity up to 50%)”.
The same measure, in the same setting: the same measure for `C=CC(=O)N1[C@H](C)CN(c2ncnc3c(F)c(-c4c(C)ccc5cn[nH]c45)c(Cl)cc23)C[C@@H]1C` [III-35, 1-((2S,6R)-4-(6-chloro-8-fluoro-7-(6-methyl-1H-indazol-7-yl)quinazolin-4-yl)-2,6-dimethyl-piperazin-1-yl)prop-2-en-1-one]: “+++ (+++ indicates binding activity greater than 90%)”; for `C=CC(=O)N1CCN(c2ncnc3c(F)c(-c4c(O)cccc4F)c(Cl)cc23)C(=O)C1` [III-38, 4-acryloyl-1-(6-chloro-8-fluoro-7-(2-fluoro-6-hydroxy-phenyl)quinazolin-4-yl) piperazin-2-one]: “++ (++ indicates activity from 50% to 90%)”.
